Source: patent US20260325605A1, “INHIBITORS” (Zealand Pharma A/S, priority 2022, published 2026)

Tests used:
Format in all cases: cell-based
[1] = biological target: T1, Kv1.1 (Homo sapiens, UniProt Q09470); experiment: Patch clamp assay (QPatch), Kv1.1
T1 construct: expressed in transfected cells

[2] = biological target: T2, Kv1.2 (Homo sapiens, UniProt P16389); experiment: Patch clamp assay (QPatch), Kv1.2
T2 construct: expressed in transfected cells

[3] = tested on: human peripheral blood mononuclear cells (PBMCs); experiment: Example 3b: IL-2 release from anti-CD3 stimulated human PBMCs; conditions: 5 donors, anti-CD3 1 μg/ml, geometric mean, at least 6 replicates
Procedure: Human peripheral blood mononuclear cells (PBMCs) were used to assess the effects of Kv1.3 inhibitor peptides on T-cell activation as determined by IL-2 release after stimulation with anti-CD3.
Human PBMCs were obtained from Precision for Medicine (Frederick, MD). Cells from 5 donors were used. Plate-bound anti-CD3 was used to stimulate bulk T cells in the PBMC preparations. Briefly, 96-well plates were coated with anti-CD3 antibody for app. 16 hours at 5° C., using 50 μl of a 1 μg/ml anti-CD3 solution diluted in PBS. Thereafter the plates were washed twice.
Peptides were subsequently diluted in medium (RPMI 1640 with Glutamax-I containing, 10% v/v Fetal Bovine Serum, 1% v/v penicillin-streptomycin Solution) and added in a volume of 50 μl. The peptides indicated in Table 4b were used at concentrations ranging from 0.3 pM to 1000 nM (half log dilutions, starting concentrations varying). Cyclosporin A (1 μg/ml) and Vm24 peptide (100 nM) were used as positive controls.
Finally, 50,000 PBMCs in the same medium were added to each well in a volume of 50 μl, giving a final volume of 100 μl per well. The plates were incubated for 20-24 hours in a 370C/5% CO2 incubator. After centrifugation of the plates, 25 μl supernatant was transferred to IL-2 detection plates (MSD Human IL-2 Tissue Culture Kit, cat #K151AHB-2) and IL-2 was measures as described by the manufacturer (Meso Scale Discovery, Rockville, Maryland, USA).
All values derive from at least 6 replicates.

[4] = tested on: human peripheral blood mononuclear cells (PBMCs); experiment: Example 3a: IL-2 release from anti-CD3 stimulated human PBMCs
Procedure: Human peripheral blood mononuclear cells (PBMCs) were used to assess the effects of Kv1.3 inhibitor peptides on T-cell activation as determined by IL-2 (cytokine) release after stimulation with anti-CD3.
Human PBMCs were obtained from Precision for Medicine (Frederick, MD). Cells from 5 donors were used. Plate-bound anti-CD3 was used to stimulate bulk T cells in the PBMC preparations. Briefly, 96-well plates were coated with anti-CD3 antibody for 2 hrs at 37° C., using 50 μL of a 0.5 μg/mL anti-CD3 solution diluted in 1×PBS. Thereafter the plates were washed twice.
Cyclosporin A (1 ug/ml) and Vm24 peptide (100 nM) were used as positive controls. Finally, 1×10^5 PBMCs were added to each well in a volume of 100 μL, giving a final volume of 200 μL per well. The plates were incubated for 20-24 hours in a 37° C./5% CO2 incubator. After centrifugation of the plates, 25 μl supernatant was transferred to IL-2 detection plates (MSD Human IL-2 Tissue Culture Kit, cat #K151AHB-2) and IL-2 was measures as described by the manufacturer (Meso Scale Discovery, Rockville, Maryland, USA).
All values derive from at least 4 replicates.

[5] = biological target: T3, Kv1.6 (Homo sapiens, UniProt P17658); experiment: Patch clamp assay (QPatch), Kv1.6
T3 construct: expressed in transfected cells

[6] = biological target: T4, Kv1.3 (Homo sapiens, UniProt P22001); experiment: Patch clamp assay (QPatch), Kv1.3; conditions: CHO cells stably expressing human Kv1.3, read-out: Potency IC50, Kv1.3
T4 construct: expressed in transfected cells
T4 sequence (P22001 whole entry): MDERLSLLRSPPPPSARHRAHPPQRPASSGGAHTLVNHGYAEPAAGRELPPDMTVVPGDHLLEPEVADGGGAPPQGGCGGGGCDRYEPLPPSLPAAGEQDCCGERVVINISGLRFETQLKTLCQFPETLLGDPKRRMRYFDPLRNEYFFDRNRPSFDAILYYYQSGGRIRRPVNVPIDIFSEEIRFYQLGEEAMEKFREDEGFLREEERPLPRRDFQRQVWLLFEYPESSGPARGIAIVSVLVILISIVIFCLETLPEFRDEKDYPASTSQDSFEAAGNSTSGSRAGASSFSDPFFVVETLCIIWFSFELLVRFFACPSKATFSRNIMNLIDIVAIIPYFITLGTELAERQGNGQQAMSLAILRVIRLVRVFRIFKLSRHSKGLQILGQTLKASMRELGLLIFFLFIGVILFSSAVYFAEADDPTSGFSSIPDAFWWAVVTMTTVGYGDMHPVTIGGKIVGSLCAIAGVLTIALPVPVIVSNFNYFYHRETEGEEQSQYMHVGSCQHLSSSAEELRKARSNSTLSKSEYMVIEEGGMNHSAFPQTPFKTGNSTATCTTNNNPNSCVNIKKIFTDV

T3 sequence (P17658 whole entry): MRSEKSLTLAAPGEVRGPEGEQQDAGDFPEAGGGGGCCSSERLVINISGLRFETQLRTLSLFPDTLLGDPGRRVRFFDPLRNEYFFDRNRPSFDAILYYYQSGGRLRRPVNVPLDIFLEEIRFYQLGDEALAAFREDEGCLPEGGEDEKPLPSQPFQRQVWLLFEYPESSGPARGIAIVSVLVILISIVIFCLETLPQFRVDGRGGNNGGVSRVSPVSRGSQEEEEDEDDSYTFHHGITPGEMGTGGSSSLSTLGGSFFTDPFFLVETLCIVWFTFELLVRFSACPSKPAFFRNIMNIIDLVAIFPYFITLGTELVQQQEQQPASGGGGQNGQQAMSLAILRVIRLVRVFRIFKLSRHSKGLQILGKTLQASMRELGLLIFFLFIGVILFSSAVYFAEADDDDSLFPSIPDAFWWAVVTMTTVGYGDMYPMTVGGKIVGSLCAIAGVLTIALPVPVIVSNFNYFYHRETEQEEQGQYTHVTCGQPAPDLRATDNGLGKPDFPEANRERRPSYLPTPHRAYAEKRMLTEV
T2 sequence (P16389 whole entry): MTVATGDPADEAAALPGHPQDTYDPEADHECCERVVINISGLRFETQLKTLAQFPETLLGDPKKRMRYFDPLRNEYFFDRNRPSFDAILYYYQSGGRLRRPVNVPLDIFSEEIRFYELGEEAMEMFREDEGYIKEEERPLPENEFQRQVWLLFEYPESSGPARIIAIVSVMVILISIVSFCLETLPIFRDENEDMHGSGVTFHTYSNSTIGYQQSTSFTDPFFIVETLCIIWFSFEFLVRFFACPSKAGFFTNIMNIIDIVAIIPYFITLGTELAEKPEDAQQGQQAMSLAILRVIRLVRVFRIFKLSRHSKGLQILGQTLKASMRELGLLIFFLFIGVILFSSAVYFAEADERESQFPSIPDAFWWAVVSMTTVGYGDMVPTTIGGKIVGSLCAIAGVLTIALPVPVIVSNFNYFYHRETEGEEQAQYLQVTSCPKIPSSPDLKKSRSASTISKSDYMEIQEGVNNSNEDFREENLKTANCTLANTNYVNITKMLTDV
T1 sequence (Q09470 whole entry): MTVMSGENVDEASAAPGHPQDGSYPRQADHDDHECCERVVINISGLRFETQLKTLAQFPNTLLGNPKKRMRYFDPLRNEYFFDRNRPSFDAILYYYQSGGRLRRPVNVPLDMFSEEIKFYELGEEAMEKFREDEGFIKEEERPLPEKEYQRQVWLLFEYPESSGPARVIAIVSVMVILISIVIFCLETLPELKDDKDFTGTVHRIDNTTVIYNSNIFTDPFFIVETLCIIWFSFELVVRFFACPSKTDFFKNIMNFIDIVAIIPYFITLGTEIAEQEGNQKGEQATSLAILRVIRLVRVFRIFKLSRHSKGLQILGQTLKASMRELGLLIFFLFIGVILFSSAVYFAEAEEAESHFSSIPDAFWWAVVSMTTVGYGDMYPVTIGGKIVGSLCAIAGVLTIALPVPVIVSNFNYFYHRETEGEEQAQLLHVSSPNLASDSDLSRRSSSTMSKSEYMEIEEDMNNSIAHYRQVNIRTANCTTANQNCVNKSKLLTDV

H-[phosphotyrosyl][8-Amino-3,6-dioxaoctanoyl]RSCIDTIPKSRCTAFQCKHSMKYRLSFCRKTCGTC-NH2 [ShK-186, reference compound]
IC50 ([1]; QPatch, CHO cells stably expressing human Kv1.1, read-out: Potency IC50, Kv1.1): 0.31 nM | Selectivity Kv1.1/Kv1.3 ([1]; ratio of IC50 Kv1.1/Kv1.3): 4.9 | IC50 ([2]; QPatch, CHO cells stably expressing human Kv1.2, read-out: Potency IC50, Kv1.2): 43 nM | Selectivity Kv1.2/Kv1.3 ([2]; ratio of IC50 Kv1.2/Kv1.3): 682 | IC50 ([3]; listed as ShK186, read-out: anti-CD3 PBMC/IL-2 IC50): 0.05 nM | IC50 ([3]; read-out: anti-CD3 PBMC/IL-2 IC50): 0.04 nM | IC50 ([4]; human PBMCs, 5 donors, anti-CD3 0.5 μg/mL, geometric mean, at least 4 replicates, read-out: anti-CD3 PBMC/ IL-2 IC50): 0.07 nM | comparison of IC50 (IL-2 secretion) with ShK186 / Moka1 ([4]; in words): significantly lower than Moka1 | IC50 ([5]; QPatch, CHO cells stably expressing human Kv1.6, read-out: Potency IC50, Kv1.6): 0.45 nM | Selectivity Kv1.6/Kv1.3 ([5]; ratio of IC50 Kv1.6/Kv1.3): 7.4 | IC50 [6]: 0.095 nM
